Measurements published in ChEMBL document CHEMBL3886609, “Piperidylpyrimidine derivatives as modulators of protein kinase inhibitors and of vascular endothelial growth factor receptor 2” (2016).

Molecular target: Vascular endothelial growth factor receptor 2 (Homo sapiens, UniProt P35968)
Experiment: VEGFR2 Kinase Assay: Biochemical KDR kinase assays were performed in 96 well microtiter plates that were coated overnight with 75 ug/well of poly-Glu-Tyr (4:1) in 10 mM Phosphate Buffered Saline (PBS), pH 7.4. The coated plates were washed with 2 mls per well PBS+0.05% Tween-20 (PBS-T), blocked by incubation with PBS containing 1% BSA, then washed with 2 mls per well PBS-T prior to starting the reaction. Reactions were carried out in 100 uL reaction volumes containing 2.7 uM ATP in kinase buffer (50 mM Hepes buffer pH 7.4, 20 mM MgCl2, 0.1 mM MnCl2 and 0.2 mM Na3VO4). Test compounds were reconstituted in 100% DMSO and added to the reaction to give a final DMSO concentration of 5%. Reactions were initiated by the addition 20 ul per well of kinase buffer containing 200-300 ng purified cytoplasmic domain KDR protein (BPS Bioscience, San Diego, Calif.). Following a 15 minute incubation at 30° C., the reactions were washed 2 mls per well PBS-T. 100 ul of a monoclonal anti-phosphotyrosine antibody-peroxidase conjugate diluted 1:10,000 in PBS-T was added to the wells for 30 minutes. Following a 2 mls per well wash with PBS-Tween-20, 100 ul of 0-Phenylenediamine Dihydrochloride in phosphate-citrate buffer, containing urea hydrogen peroxide, was added to the wells for 7-10 minutes as a colorimetric substrate for the peroxidase. […]

Sequence of Vascular endothelial growth factor receptor 2 (P35968 whole entry): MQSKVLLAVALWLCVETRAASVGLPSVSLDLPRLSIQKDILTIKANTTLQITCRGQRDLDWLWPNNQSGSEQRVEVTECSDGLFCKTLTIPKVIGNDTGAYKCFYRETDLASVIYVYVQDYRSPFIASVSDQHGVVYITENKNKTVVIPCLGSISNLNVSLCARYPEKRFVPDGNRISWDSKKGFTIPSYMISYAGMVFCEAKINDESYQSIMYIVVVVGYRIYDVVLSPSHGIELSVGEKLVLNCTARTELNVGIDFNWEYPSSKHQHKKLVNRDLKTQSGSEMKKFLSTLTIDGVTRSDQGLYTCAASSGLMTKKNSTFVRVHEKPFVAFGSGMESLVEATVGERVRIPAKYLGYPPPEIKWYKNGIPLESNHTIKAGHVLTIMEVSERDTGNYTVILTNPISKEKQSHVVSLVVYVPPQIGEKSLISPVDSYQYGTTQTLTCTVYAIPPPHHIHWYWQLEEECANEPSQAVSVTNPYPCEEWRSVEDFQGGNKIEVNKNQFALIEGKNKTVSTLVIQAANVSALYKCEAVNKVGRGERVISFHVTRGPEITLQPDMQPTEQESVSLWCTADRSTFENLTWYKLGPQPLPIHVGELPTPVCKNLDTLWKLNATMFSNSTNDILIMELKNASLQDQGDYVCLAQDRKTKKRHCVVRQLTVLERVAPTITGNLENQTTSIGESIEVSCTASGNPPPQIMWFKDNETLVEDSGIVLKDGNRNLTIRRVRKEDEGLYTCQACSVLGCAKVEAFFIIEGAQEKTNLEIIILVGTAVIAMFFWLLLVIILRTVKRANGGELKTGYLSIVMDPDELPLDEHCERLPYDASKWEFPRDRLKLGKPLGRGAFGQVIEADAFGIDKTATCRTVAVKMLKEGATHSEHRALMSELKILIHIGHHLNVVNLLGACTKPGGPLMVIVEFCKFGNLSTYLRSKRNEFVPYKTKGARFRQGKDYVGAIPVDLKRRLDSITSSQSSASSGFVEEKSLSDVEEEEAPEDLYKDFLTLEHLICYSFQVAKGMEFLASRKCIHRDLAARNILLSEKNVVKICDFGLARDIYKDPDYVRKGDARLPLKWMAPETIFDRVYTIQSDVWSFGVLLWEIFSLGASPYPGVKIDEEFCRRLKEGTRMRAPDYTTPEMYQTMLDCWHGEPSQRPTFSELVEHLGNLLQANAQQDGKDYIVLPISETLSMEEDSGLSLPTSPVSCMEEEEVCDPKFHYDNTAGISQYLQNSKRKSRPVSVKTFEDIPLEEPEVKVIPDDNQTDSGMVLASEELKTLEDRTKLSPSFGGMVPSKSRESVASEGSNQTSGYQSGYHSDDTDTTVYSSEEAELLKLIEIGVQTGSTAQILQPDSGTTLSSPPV

Q: For `O=C(c1cccnc1)N1CCc2nc(Nc3ccsc3)ncc2C1`, which IC50 is on record?
A: 0.011 µM
